Paper PMC6271978, “1H-2,3-Dihydroperimidine Derivatives: A New Class of Potent Protein Tyrosine Phosphatase 1B Inhibitors” (Molecules, 2013)

Legend:
PTP1B (GST-PTP1B) = target: T1, PTP1B (GST-PTP1B) (Homo sapiens, UniProt P18031); experiment: PTP1B inhibition, colorimetric pNPP assay; type: biochemical; settings: for inhibition at 20 µg/mL: PTP1B, compound at 20 μg/mL; for inhibition at 20 µg/mL / IC50: pNPP substrate; for PTP1B inhibitory activity (in words): pNPP assay, tested at 20 μg/mL; for IC50: means ± SD of three replications, OA/PC = oleanolic acid positive control
T1 sequence (P18031 1-435): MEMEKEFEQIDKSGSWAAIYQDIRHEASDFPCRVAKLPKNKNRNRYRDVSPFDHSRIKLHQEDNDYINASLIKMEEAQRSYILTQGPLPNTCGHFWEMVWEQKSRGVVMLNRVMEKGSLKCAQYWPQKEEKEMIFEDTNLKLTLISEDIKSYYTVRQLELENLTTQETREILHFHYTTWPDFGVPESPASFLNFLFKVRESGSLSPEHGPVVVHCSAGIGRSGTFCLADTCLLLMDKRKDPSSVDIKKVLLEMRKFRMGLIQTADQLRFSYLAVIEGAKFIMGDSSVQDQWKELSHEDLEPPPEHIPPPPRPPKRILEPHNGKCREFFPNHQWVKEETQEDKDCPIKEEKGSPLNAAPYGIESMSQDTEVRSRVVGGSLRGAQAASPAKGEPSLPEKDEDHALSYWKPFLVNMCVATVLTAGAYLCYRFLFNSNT

Row | SMILES | melting point | inhibition at 20 µg/mL (PTP1B (GST-PTP1B)) | PTP1B inhibitory activity (in words) (PTP1B (GST-PTP1B)) | IC50 (PTP1B (GST-PTP1B))
1 | O=C(O)CCCOc1ccc(C2Nc3cccc4cccc(c34)N2)cc1 [Compound 24] | 126.3 to 130.9 °C | 10.5% | no inhibitory activity | –
2 | COC(=O)C1CCCN1C(=O)c1ccc(C2Nc3cccc4cccc(c34)N2)cc1 (stereo not drawn) [Compound 10, Methyl 1-(4-(2,3-dihydro-1H-perimidin-2-yl)benzoyl)pyrrolidine-2-carboxylate] | 171.3 to 176 °C | 26.2% | – | –
3 | CCOC(=O)CCCOc1ccc(C2Nc3cccc4cccc(c34)N2)cc1 [Compound 21] | 76.2 to 78.6 °C | 7.45% | did not show inhibitory activity | –
4 | Oc1ccc(C2Nc3cccc4cccc(c34)N2)cc1 [Compound 5, 4-(2,3-Dihydro-1H-perimidin-2-yl)phenol] | – | 7.18% | – | –
5 | Brc1ccc(C2Nc3cccc4cccc(c34)N2)cc1 [Compound 2] | – | 37% | – | –
6 | Nc1ccc(C2Nc3cccc4cccc(c34)N2)cc1 [Compound 8] | 166.4 to 171.9 °C | 23.8% | – | –
7 | CCOC(=O)CC(=O)Nc1ccc(C2Nc3cccc4cccc(c34)N2)cc1 [Compound 27, Ethyl 3-{[4-(2,3-dihydro-1H-perimidin-2-yl)phenyl]amino}-3-oxopropanoate] | 158.2 to 160.7 °C | 1.68% | – | –
8 | O=C(O)C(=O)Nc1ccc(C2Nc3cccc4cccc(c34)N2)cc1 [Compound 30, 2-{[4-(2,3-Dihydro-1H-perimidin-2-yl)phenyl]amino}-2-oxoacetic acid] | > 265 °C | 0.51% | no activity | –
9 | Brc1cccc(C2Nc3cccc4cccc(c34)N2)c1 [Compound 3, 2-(3-Bromophenyl)-2,3-dihydro-1H-perimidine] | 161.7 to 163.3 °C | 42.5% | – | –
10 | O=C(O)CC(=O)Nc1ccc(C2Nc3cccc4cccc(c34)N2)cc1 [Compound 31, 3-{[4-(2,3-Dihydro-1H-perimidin-2-yl)phenyl]amino}-3-oxopropanoic acid] | 221.3 to 223.4 °C | 96.8% | – | 6.45 ± 0.42 µM
11 | COC(=O)CNC(=O)c1ccc(C2Nc3cccc4cccc(c34)N2)cc1 [Compound 11] | 193.3 to 198.7 °C | 4.81% | – | –
12 | CCOC(=O)CCCCOc1ccc(C2Nc3cccc4cccc(c34)N2)cc1 [Compound 22, Ethyl 5-[4-(2,3-dihydro-1H-perimidin-2-yl)phenoxy]pentanoate] | 93.8 to 96.4 °C | 2.04% | did not show inhibitory activity | –
13 | O=C(O)COc1ccc(C2Nc3cccc4cccc(c34)N2)cc1 [Compound 23, 2-[4-(2,3-Dihydro-1H-perimidin-2-yl)phenoxy]acetic acid] | > 265 °C | 98.4% | – | 5.88 ± 0.25 µM
14 | CCOC(=O)CCCC(=O)Nc1ccc(C2Nc3cccc4cccc(c34)N2)cc1 [Compound 29, Ethyl 5-{[4-(2,3-dihydro-1H-perimidin-2-yl]phenyl)amino}-5-oxopentanoate] | 139.9 to 142.5 °C | 2.92% | – | –
15 | CCOC(=O)CCCCCNC(=O)c1ccc(C2Nc3cccc4cccc(c34)N2)cc1 [Compound 14, Ethyl 6-(4-(2,3-dihydro-1H-perimidin-2-yl)benzamido)hexanoate] | 145.8 to 147.4 °C | 35.6% | – | –
16 | O=C(O)CCCNC(=O)c1ccc(C2Nc3cccc4cccc(c34)N2)cc1 [Compound 17, 4-(4-(2,3-Dihydro-1H-perimidin-2-yl)benzamido)butanoic acid] | 99.7 to 103.3 °C | 73.1% | – | 22.2 ± 1.6 µM
17 | CCOC(=O)C(=O)Nc1ccc(C2Nc3cccc4cccc(c34)N2)cc1 [Compound 26, Ethyl 2-{[4-(2,3-dihydro-1H-perimidin-2-yl)phenyl]amino}-2-oxoacetate] | 132.3 to 135.5 °C | 91.8% | – | 1.27 ± 0.06 µM
18 | N#Cc1cc(C2Nc3cccc4cccc(c34)N2)ccc1F [Compound 6, 5-(2,3-Dihydro-1H-perimidin-2-yl)-2-fluorobenzonitrile] | 204.4 to 208.4 °C | 31.6% | – | –
19 | CCOC(=O)CCC(=O)Nc1ccc(C2Nc3cccc4cccc(c34)N2)cc1 [Compound 28] | 165.8 to 170.9 °C | 29.7% | – | –
20 | O=C(O)CCCCCNC(=O)c1ccc(C2Nc3cccc4cccc(c34)N2)cc1 [Compound 19, 6-(4-(2,3-Dihydro-1H-perimidin-2-yl)benzamido)hexanoic acid] | 90.8 to 91.9 °C | 95.3% | – | 7.82 ± 0.27 µM
21 | COC(=O)c1ccc(C2Nc3cccc4cccc(c34)N2)cc1 [Compound 9] | – | 15.3% | – | –
22 | Brc1ccccc1C1Nc2cccc3cccc(c23)N1 [Compound 4, 2-(2-Bromophenyl)-2,3-dihydro-1H-perimidine] | – | 17.5% | – | –

Continued, values first:

Row | melting point | inhibition at 20 µg/mL (PTP1B (GST-PTP1B)) | PTP1B inhibitory activity (in words) (PTP1B (GST-PTP1B)) | IC50 (PTP1B (GST-PTP1B)) | SMILES
23 | 111.1 to 113.7 °C | 12.6% | no inhibitory activity | – | CC(C)(C)OC(=O)NCCC(=O)Nc1ccc(C2Nc3cccc4cccc(c34)N2)cc1 [Compound 34]
24 | 183.6 to 184.7 °C | 42.1% | – | – | COC(=O)CNC(=O)c1ccc(C2Nc3cccc4cccc(c34)N2)nc1 [Compound 42]
25 | 109.4 to 113.5 °C | 4.74% | – | – | CCOC(=O)CCCCNC(=O)c1ccc(C2Nc3cccc4cccc(c34)N2)nc1 [Compound 44, Ethyl 5-[6-(2,3-dihydro-1H-perimidin-2-yl)nicotinamido]pentanoate]
26 | 117.1 to 120.3 °C | 91.5% | – | 3.56 ± 0.13 µM | O=C(O)CCCCNC(=O)c1ccc(C2Nc3cccc4cccc(c34)N2)nc1 [Compound 48, 5-[6-(2,3-Dihydro-1H-perimidin-2-yl)nicotinamido]pentanoic acid]
27 | 239.7 to 241.2 °C | 0.29% | no inhibitory activity | – | NCCC(=O)Nc1ccc(C2Nc3cccc4cccc(c34)N2)cc1 [Compound 35]
28 | > 265 °C | 95.1% | – | 6.91 ± 1.17 µM | O=C(O)CCCC(=O)Nc1ccc(C2Nc3cccc4cccc(c34)N2)cc1 [Compound 33, 5-{[4-(2,3-Dihydro-1H-perimidin-2-yl)phenyl]amino}-5-oxopentanoic acid]
29 | – | 6.4% | – | – | COC(=O)c1ccc(C2Nc3cccc4cccc(c34)N2)nc1 [Compound 40]
30 | – | 29.9% | no activity | – | O=C(O)CCC(=O)Nc1ccc(C2Nc3cccc4cccc(c34)N2)cc1 [Compound 32]
31 | 119.3 to 123.8 °C | 10.8% | – | – | CCOC(=O)CCCCCNC(=O)c1ccc(C2Nc3cccc4cccc(c34)N2)nc1 [Compound 45, Ethyl 6-[6-(2,3-dihydro-1H-perimidin-2-yl)nicotinamido]hexanoate]
32 | 100.1 to 105.4 °C | 4.67% | – | – | COC(=O)CCCNC(=O)c1ccc(C2Nc3cccc4cccc(c34)N2)nc1 [Compound 43, Methyl 4-[6-(2,3-dihydro-1H-perimidin-2-yl)nicotinamido]butanoate]
